Assay results from patent US12076307B2, “Compositions for prevention or treatment of acute radiation syndrome and other radiation exposure” (priority 2017, dated 2024).

Experiments:
[1] = In vitro metabolite screening, monkey liver microsomes; type: in vitro ADME; details: NHP, N=2
Procedure: [^14C]EC-18 or the positive control (7-ethoxycoumarin; 7-EC) reacted with microsomes prepared from hepatocytes of rats, dogs, monkeys, and humans, with or without cofactors, for 60 and 120 min. Then, the residual EC-18 concentration over time was measured by LC-RID ([^14C]EC-18) or LC-MS/MS (7-EC) (FIG. 63 and FIG. 64).
The LC-RID chromatographic profiles of radioactive metabolites produced in the 2-hr incubation reaction mixtures of the same test systems A, B, and C used to assess the metabolic and non-metabolic elimination rates of EC-18 were compared to the LC-UV chromatographic profiles of the synthetic reference material. […] The relative radioactivity of EC-18 accounted for 42-67% of total radioactivity. The peaks designated as M2, M3, and M5 were also determined in all species, and their relative radioactivity accounted for 12-34% of total radioactivity. The peaks of M4 and M6 were determined in monkeys and humans. M1 was abundantly detected in all species, but it was assumed to be a peak of early elution. The LC-UV chromatograms of reaction mixtures in each test system (FIGS. 65A-65C) and the relative radioactivity of the screened metabolites are shown in Table 25.

[2] = Plasma concentrations of EC-18 in non-irradiated and irradiated mice; type: in vivo; details: male, Balb/c, mouse, po
Procedure: A day after 6.11 Gy gamma-radiation, both irradiated and non-irradiated male Balb/c mice (n=5) were orally administered daily with 50, 100, 250 or 500 mg/kg of EC-18 up to 14 days and analyzed for PK parameters on days 7 and 14 post-radiation (Table 21).

OCT2 = molecular target: T1, OCT2 (Homo sapiens, UniProt O15244); test: Drug transporter inhibition, OCT2; type: in vitro ADME; details: 100 nM [3H] methyl-4-phenylpyridinium; transfected HEK-293 cells
T1 construct: expressed in transfected cells; host or cells: HEK-293
Procedure: (§1) This study examined the potential of EC-18 to interact with the transporter proteins that have been known to be involved in the absorption of commercially available drugs. EC-18 was pre-incubated with HEK-293 cells and LLC-PK1 cells that were transfected with the genes of most drug transporters as follows: OATP1B1, OATP1B3, OAT1, OAT3 and OCT2, and BCRP and P-gp, respectively.

[3] = Plasma and lymphatic concentrations of EC-18 in rats after single oral administration; type: in vivo, rat; details: for AUC(0-t) / Cmax / Tmax / half-life: n=3
Procedure: After administering a single oral dose of 500 or 2000 mg/kg of EC-18 (vehicle: olive oil) to male SD rats, the EC-18 concentration in the sampled plasma and lymphatic fluid was measured to generate the values of PK parameters (Table 16). […] The rate of increase in plasma Cmax and AUClast was lower than the rate of increase of the administered dosage.

[4] = Plasma protein binding by rapid equilibrium dialysis, rat; details: Rats, 4 hrs RED, n=3
Procedure: The plasma protein binding ability of EC-18 was tested by rapid equilibrium dialysis (RED). The chamber separated by a dialysis tubing membrane (cut-off: 8 kDa) was filled on one side with rat or human plasma mixed with phosphate buffer and on the other side with rat or human plasma mixed with the test or standard reference material (test concentration: 1 μM).

CYP2C9 = molecular target: T2, CYP2C9 (Homo sapiens, UniProt P11712); test: CYP enzyme inhibition in human liver microsomes, CYP2C9; type: in vitro ADME
T2 construct: incubated with human liver microsomes; from tissue; host or cells: human liver microsomes

OAT3 = molecular target: T3, OAT3 (Homo sapiens, UniProt Q8TCC7); test: Drug transporter inhibition, OAT3; type: in vitro ADME; details: 100 nM [3H] estrone-3-sulfate; transfected HEK-293 cells
T3 construct: expressed in transfected cells; host or cells: HEK-293
Procedure: as §1

OATP1B1 = molecular target: T4, OATP1B1 (Homo sapiens, UniProt Q9Y6L6); test: Drug transporter inhibition, OATP1B1; type: in vitro ADME; details: 100 nM [3H] estrone-3-sulfate; transfected HEK-293 cells
T4 construct: expressed in transfected cells; host or cells: HEK-293
Procedure: as §1

CYP2C19 = CYP2C19 (Homo sapiens, UniProt P33261); test: CYP enzyme inhibition in human liver microsomes, CYP2C19
Excerpt: CYP1A2, CYP2C9, CYP2C19, CYP2D6, and CYP3A4 are the CYP subfamily, which plays a critical role in the metabolism of most drugs.

[5] = 50 mg/kg, day 7, 50 mg/kg oral daily, Irradiated 6.11 Gy
[6] = 50 mg/kg, day 7, 50 mg/kg oral daily, Non-irradiated
[7] = 50 mg/kg, day 14, 50 mg/kg oral daily, Irradiated 6.11 Gy
[8] = 50 mg/kg, day 14, 50 mg/kg oral daily, Non-irradiated
[9] = 100 mg/kg, day 7, 100 mg/kg oral daily, Irradiated 6.11 Gy
[10] = 100 mg/kg, day 7, 100 mg/kg oral daily, Non-irradiated
[11] = 100 mg/kg, day 14, 100 mg/kg oral daily, Irradiated 6.11 Gy
[12] = 100 mg/kg, day 14, 100 mg/kg oral daily, Non-irradiated
[13] = 250 mg/kg, day 7, 250 mg/kg oral daily, Irradiated 6.11 Gy
[14] = 250 mg/kg, day 7, 250 mg/kg oral daily, Non-irradiated
[15] = 250 mg/kg, day 14, 250 mg/kg oral daily, Irradiated 6.11 Gy
[16] = 250 mg/kg, day 14, 250 mg/kg oral daily, Non-irradiated
[17] = 500 mg/kg, day 7, 500 mg/kg oral daily, Irradiated 6.11 Gy
[18] = 500 mg/kg, day 7, 500 mg/kg oral daily, Non-irradiated
[19] = 500 mg/kg, day 14, 500 mg/kg oral daily, Irradiated 6.11 Gy
[20] = 500 mg/kg, day 14, 500 mg/kg oral daily, Non-irradiated
[21] = male, SD, rat, Lymph, 500 mg/kg oral
[22] = male, SD, rat, Lymph, 2000 mg/kg oral
[23] = male, SD, rat, Plasma, 500 mg/kg oral
[24] = male, SD, rat, Plasma, 2000 mg/kg oral

T1 sequence (O15244 whole entry): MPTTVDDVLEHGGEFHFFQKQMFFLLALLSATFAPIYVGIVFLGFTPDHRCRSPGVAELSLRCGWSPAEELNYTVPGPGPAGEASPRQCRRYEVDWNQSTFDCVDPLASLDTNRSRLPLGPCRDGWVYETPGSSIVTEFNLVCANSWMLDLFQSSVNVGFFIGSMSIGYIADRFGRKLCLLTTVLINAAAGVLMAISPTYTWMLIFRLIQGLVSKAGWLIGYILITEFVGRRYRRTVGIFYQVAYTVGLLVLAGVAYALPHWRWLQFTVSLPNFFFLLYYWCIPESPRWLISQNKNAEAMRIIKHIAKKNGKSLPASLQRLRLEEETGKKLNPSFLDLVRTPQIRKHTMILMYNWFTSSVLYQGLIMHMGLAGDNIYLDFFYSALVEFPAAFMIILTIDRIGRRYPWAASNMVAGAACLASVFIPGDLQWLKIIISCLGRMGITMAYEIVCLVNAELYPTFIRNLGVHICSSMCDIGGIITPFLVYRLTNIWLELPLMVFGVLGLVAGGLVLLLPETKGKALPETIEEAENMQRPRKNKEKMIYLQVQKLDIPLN
T2 sequence (P11712 whole entry): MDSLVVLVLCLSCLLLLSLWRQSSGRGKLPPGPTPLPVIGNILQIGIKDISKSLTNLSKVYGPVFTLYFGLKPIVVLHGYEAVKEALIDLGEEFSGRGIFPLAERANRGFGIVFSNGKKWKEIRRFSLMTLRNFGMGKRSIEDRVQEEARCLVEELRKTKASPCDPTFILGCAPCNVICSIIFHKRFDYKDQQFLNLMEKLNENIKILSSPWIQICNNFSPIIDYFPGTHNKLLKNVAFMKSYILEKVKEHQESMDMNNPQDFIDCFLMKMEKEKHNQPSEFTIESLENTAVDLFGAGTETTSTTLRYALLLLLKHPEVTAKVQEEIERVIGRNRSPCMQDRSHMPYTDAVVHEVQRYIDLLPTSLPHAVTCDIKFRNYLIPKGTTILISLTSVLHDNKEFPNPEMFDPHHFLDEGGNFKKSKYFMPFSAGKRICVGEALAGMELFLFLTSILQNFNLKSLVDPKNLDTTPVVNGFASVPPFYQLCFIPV
T4 sequence (Q9Y6L6 whole entry, species assumed): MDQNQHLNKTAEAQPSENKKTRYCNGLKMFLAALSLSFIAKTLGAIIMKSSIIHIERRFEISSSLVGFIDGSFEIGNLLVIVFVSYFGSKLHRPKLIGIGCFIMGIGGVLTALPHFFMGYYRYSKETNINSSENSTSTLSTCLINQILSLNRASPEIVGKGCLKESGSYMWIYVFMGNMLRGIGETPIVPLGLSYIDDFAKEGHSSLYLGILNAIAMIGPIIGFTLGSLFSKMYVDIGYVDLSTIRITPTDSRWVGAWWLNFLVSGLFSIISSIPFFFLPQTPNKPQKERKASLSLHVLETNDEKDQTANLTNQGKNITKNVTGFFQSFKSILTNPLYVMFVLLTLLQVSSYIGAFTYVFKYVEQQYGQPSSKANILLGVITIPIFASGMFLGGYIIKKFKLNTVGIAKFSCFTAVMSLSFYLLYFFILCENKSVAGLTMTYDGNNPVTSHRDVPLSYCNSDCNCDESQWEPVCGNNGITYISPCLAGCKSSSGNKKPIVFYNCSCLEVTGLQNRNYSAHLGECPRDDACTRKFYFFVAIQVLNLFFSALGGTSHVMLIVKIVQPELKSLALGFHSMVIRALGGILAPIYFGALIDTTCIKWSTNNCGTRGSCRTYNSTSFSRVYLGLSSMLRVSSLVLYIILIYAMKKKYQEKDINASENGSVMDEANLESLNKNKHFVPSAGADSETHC
T3 sequence (Q8TCC7 whole entry, species assumed): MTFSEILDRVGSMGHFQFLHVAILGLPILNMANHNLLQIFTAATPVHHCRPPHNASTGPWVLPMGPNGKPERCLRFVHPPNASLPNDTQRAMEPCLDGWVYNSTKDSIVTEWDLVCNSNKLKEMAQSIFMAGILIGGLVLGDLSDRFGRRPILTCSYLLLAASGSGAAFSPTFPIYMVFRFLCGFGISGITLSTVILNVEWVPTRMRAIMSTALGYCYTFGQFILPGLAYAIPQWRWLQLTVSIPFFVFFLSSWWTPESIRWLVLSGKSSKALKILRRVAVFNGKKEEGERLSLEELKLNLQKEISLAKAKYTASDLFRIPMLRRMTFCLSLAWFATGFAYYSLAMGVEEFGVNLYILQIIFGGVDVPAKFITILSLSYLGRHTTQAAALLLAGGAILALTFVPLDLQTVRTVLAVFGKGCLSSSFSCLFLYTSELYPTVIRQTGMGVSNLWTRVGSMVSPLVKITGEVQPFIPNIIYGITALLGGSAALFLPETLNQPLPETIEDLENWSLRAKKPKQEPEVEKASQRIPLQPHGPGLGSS
Chain of CYP2C19 (P33261 whole entry): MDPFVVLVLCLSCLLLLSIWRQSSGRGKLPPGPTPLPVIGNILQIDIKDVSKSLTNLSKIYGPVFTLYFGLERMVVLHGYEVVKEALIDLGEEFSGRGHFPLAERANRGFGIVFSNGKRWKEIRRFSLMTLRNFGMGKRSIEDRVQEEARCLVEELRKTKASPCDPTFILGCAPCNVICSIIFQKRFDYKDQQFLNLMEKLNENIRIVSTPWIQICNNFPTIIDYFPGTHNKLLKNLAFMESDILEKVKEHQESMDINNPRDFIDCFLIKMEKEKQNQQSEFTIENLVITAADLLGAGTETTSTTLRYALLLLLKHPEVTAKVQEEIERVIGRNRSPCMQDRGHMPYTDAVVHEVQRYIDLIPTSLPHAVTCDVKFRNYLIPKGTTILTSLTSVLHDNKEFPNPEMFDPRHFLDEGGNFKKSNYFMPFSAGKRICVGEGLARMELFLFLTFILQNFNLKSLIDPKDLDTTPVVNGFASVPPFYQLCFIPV

What does the source list for `CCCCC/C=C\C/C=C\CCCCCCCC(=O)OC(COC(C)=O)COC(=O)CCCCCCCCCCCCCCC` (stereo not drawn) [EC-18, 1-palmitoyl-2-linoleoyl-3-acetylglycerol]?
Mean Peak Area in LC-RID ([1]; A (NADPH added), [14C]EC-18 2 hrs): 46.8%; Mean Peak Area in LC-RID ([1]; B (NADPH, PAPS, UDPGA added), 2 hrs): 46.0%; Mean Peak Area in LC-RID ([1]; C (no cofactor added), 2 hrs): 41.8%; AUC(0-t) [2, 5]: 39.5 ± 14.8 ng·h/mL; Cmax [2, 5]: 7.8 ± 3.4 ng/mL; Tmax [2, 5]: 0.4 ± 0.3 h; AUC(0-t) [2, 6]: 21.6 ± 11.7 ng·h/mL; Cmax [2, 6]: 2.7 ± 1.4 ng/mL; Tmax [2, 6]: 2.8 ± 2.4 h; AUC(0-t) [2, 7]: 8.6 ± 3.7 ng·h/mL; Cmax [2, 7]: 1.9 ± 0.6 ng/mL; Tmax [2, 7]: 3.1 ± 4.5 h; AUC(0-t) [2, 8]: 38.5 ± 10.3 ng·h/mL; Cmax [2, 8]: 4.1 ± 1.4 ng/mL; Tmax [2, 8]: 7.8 ± 8.4 h; AUC(0-t) [2, 9]: 41.3 ± 12.1 ng·h/mL; Cmax [2, 9]: 9.8 ± 2.9 ng/mL; Tmax [2, 9]: 0.7 ± 0.2 h; AUC(0-t) [2, 10]: 25.3 ± 7.1 ng·h/mL; Cmax [2, 10]: 9.7 ± 4.7 ng/mL; Tmax [2, 10]: 5.2 ± 8.6 h; AUC(0-t) [2, 11]: 80.8 ± 124 ng·h/mL; Cmax [2, 11]: 17.2 ± 23.3 ng/mL; Tmax [2, 11]: 1.8 ± 2.1 h; AUC(0-t) [2, 12]: 51.3 ± 22.6 ng·h/mL; Cmax [2, 12]: 12.8 ± 9.9 ng/mL; Tmax [2, 12]: 7.6 ± 8.5 h; AUC(0-t) [2, 13]: 73.9 ± 27.1 ng·h/mL; Cmax [2, 13]: 31.4 ± 14.9 ng/mL; Tmax [2, 13]: 0.6 ± 0.2 h; AUC(0-t) [2, 14]: 40.7 ± 23.4 ng·h/mL; Cmax [2, 14]: 16.4 ± 11.2 ng/mL; Tmax [2, 14]: 0.6 ± 0.2 h; AUC(0-t) [2, 15]: 16.2 ± 7.8 ng·h/mL; Cmax [2, 15]: 17.9 ± 17.5 ng/mL; Tmax [2, 15]: 0.6 ± 0.2 h; AUC(0-t) [2, 16]: 76.6 ± 9.8 ng·h/mL; Cmax [2, 16]: 19.4 ± 12.3 ng/mL; Tmax [2, 16]: 2.8 ± 4.2 h; AUC(0-t) [2, 17]: 123 ± 17.8 ng·h/mL; Cmax [2, 17]: 60.7 ± 14.6 ng/mL; Tmax [2, 17]: 0.7 ± 0.2 h; AUC(0-t) [2, 18]: 57.1 ± 39.7 ng·h/mL; Cmax [2, 18]: 14.2 ± 3 ng/mL; Tmax [2, 18]: 5.2 ± 8.6 h; AUC(0-t) [2, 19]: 67.3 ± 34.1 ng·h/mL; Cmax [2, 19]: 61 ± 42.1 ng/mL; Tmax [2, 19]: 0.6 ± 0.2 h; AUC(0-t) [2, 20]: 75.9 ± 16 ng·h/mL; Cmax [2, 20]: 32.1 ± 8 ng/mL; Tmax [2, 20]: 0.5 h; IC50 (OCT2): > 32 µM; bioavailability ([3]; male, SD, rat, plasma, 500-2000 mg/kg oral, read-out: mean absolute bioavailability (BA)): < 0.3%; AUC(0-t) [3, 21]: 903 ± 272 ng·h/mL; Cmax [3, 21]: 78.1 ± 34.1 ng/mL; Tmax [3, 21]: 3.33 ± 1.15 h; AUC(0-t) [3, 22]: 2630 ± 1130 ng·h/mL; Cmax [3, 22]: 245 ± 54.2 ng/mL; Tmax [3, 22]: 3 ± 2.65 h; half-life [3, 22]: 12.3 ± 5.08 h; AUC(0-t) [3, 23]: 6.97 ± 8.2 ng·h/mL; Cmax [3, 23]: 6.87 ± 6.12 ng/mL; Tmax [3, 23]: 0.5 ± 0.5 h; AUC(0-t) [3, 24]: 44.5 ± 39.5 ng·h/mL; Cmax [3, 24]: 12.1 ± 6.66 ng/mL; Tmax [3, 24]: 1.67 ± 0.58 h; half-life [3, 24]: 3.07 ± 0.87 h; time to reach the lymphatic system ([3]; single oral): ≤ 3 h; time to absorption ([3]; single oral 500 or 2000 mg/kg): ≤ 2 h; Plasma Protein Binding Rate ([4]; 1 μM): 98.8 ± 0.5%; fraction unbound at 4 hrs, 1 μM ([4]; rat, plasma, Plasma Protein Binding Rate): < 0.01; IC50 (CYP2C9): 7990 µM; IC50 (OAT3): > 32 µM; IC50 (OATP1B1): > 32 µM; IC50 (CYP2C19): 83.6 µM
